The values below come from patent US20100292165A1, “Treatment of an intestinal adenoma and/or adenocarcinoma by inhibition of notch pathway activation” (Hubrecht Laboratorium a corporation of the Netherlands, priority 2004, published 2010).

Structures are written as SMILES. Entries after “also recorded” stand apart in the source; their conditions may differ.

One series concerns adenomas of APC^min mice. The series can be described thus: Oral DAPT treatment of APC^min mice, histology of intestinal adenomas. As to conditions: DAPT 100 mg/kg orally once daily. It counts as in vivo, mouse. As for the experimental part:
The intestinal tract was dissected as a whole and flushed gently with cold PBS to remove any fecal content followed by a flush with Formalin. The small intestine was rolled up into a compact circle and fixed in Formalin at room temperature for 16 hours. The tissues were sectioned (2 to 6 μm). Following dewaxing and hydration, sections were pretreated with peroxidase blocking buffer (120 mM Na2HPO4, 43 mM citric acid, 30 mM NaN3, 0.2% H2O2; pH 5.8) for 15 minutes at room temperature. Antigen retrieval was performed by boiling samples in Na-citrate buffer (10 mM, pH 6.0). After 20 minutes, the boiling pan was allowed to slowly cool down to room temperature. Incubation of antibodies was performed in BSA in PBS overnight at 4° C. and at room temperature for one hour for Lysozyme, Ki67. In all cases, the Envision^+ kit (DAKO) was used as a secondary reagent. The incubation time was 30 minutes. Stainings were developed using DAB. Slides were then counterstained with hematoxylin and mounted. The probes used for in situ hybridization are as described (Schroder et al. 2002). Following dewaxing and hydration, tissues were incubated for five minutes in Alcian Blue (1% in 0.5% acetic acid). Subsequently washed in water, one minute incubated in Neutral Red. Quickly dehydrated, washed in Xylene and mounted with Pertex. The eight-week-old APC^min mice were treated with two different, orally deliverable γ-secretase inhibitors (DAPT: 100 mg/kg in corn oil) for 2.5, 6.5 or 15 days, after which their intestines were isolated and examined histologically. We then asked whether Notch pathway activity was essential for the maintenance of the undifferentiated, proliferative phenotype of adenoma cells. We elected to inhibit the Notch pathway pharmacologically through the use of the γ-secretase inhibitor DAPT. We then initiated treatment of fifteen-week-old APC^min mice that at this age carry 30 to 60 macroscopically detectable adenomas or polyps in the small intestine and one to three adenomas in the colon. The mice were treated with DAPT for up to 15 days, after which their intestines were examined histologically. Based on a pilot experiment and published treatment regimens, the APC^min mice were orally dosed once daily with DAPT at 100 mg/kg in maize oil.

The target of another series is γ-secretase. The series can be described thus: IC50 of γ-secretase inhibitors, assay not stated. From the text:
DAPT, DBZ or BZ are both effective in inducing the formation of a post-mitotic cell from an adenoma and/or adenocarcinoma cell and these compounds thus have a similar effect in a method according to the invention.

`CC(NC(=O)Cc1cc(F)cc(F)c1)C(=O)NC(C(=O)OC(C)(C)C)c1ccccc1` [DAPT, N—[N-(3,5-difluorophenylacetyl)-L-alanyl]-S-phenylglycine t-butyl ester]: the effects in adenomas entry in the series on adenomas of APC^min mice (day 2.5 or day 6.5 of treatment) is “No consistent effects”. In the series with adenomas of APC^min mice (day 15), the “Alcian Blue-positive goblet cells in adenomas” value was “increase in goblet cells; also recorded: Large foci of Alcian Blue-positive goblet cells had appeared” and the “proliferation in adjacent, normal crypts” value is recorded as “unaffected”. Also, the “numbers of proliferating, Ki67-positive cells in adenomas” value in the series on adenomas of APC^min mice (day 15, colon and small intestinal adenomas) is recorded as “strongly diminished; also recorded: dramatically decreased; also recorded: halted”. Further, at γ-secretase, the concentration for half-maximal inhibition (IC50) – broadly, the concentration that inhibits the measured activity by half – worked out at 10 nM.
